According to patent publication US6737383B1, “Herbicidal oxadiazolidines” (priority 1999, dated 2004):

What was measured:
[1] = system: rape; test: Test B pre/postemergence rape; format: in vivo, Brassica napus
Outline: (§1)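 Herbicidal effect was estimated by eye on a ten-point control scale after plants spent twelve to sixteen days in a greenhouse following soil or foliar treatment. Foliar sprays targeted plants at one to four leaves; all doses were formulated in a non-phytotoxic solvent with surfactant.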

[2] = system: giant foxtail; test: Test B pre/postemergence giant foxtail; format: in vivo, Setaria faberii
Outline: as §1

[3] = system: cocklebur; test: Test B pre/postemergence cocklebur; format: in vivo, Xanthium strumarium
Outline: as §1

[4] = system: crabgrass; test: Test B pre/postemergence crabgrass; format: in vivo, Digitaria sanguinalis
Outline: as §1

[5] = system: surinam grass; test: Test B pre/postemergence surinam grass; format: in vivo, Brachiaria decumbens
Outline: as §1

[6] = system: corn; test: Test B pre/postemergence corn; format: in vivo, Zea mays
Outline: as §1

[7] = system: wheat; test: Test B pre/postemergence wheat; format: in vivo, Triticum aestivum
Outline: as §1

[8] = system: bedstraw; test: Test B pre/postemergence bedstraw; format: in vivo, Galium aparine
Outline: as §1

[9] = system: pigweed; test: Test B pre/postemergence pigweed; format: in vivo, Amaranthus retroflexus
Outline: as §1

[10] = system: morningglory; test: Test B pre/postemergence morningglory; format: in vivo, Ipomoea hederacea
Outline: as §1

[11] = system: purple nutsedge; test: Test B pre/postemergence purple nutsedge; format: in vivo, Cyperus rotundus
Outline: as §1

[12] = system: wild oat; test: Test B pre/postemergence wild oat; format: in vivo, Avena fatua
Outline: as §1

[13] = system: blackgrass; test: Test B pre/postemergence blackgrass; format: in vivo, Alopecurus myosuroides
Outline: as §1

[14] = system: velvetleaf; test: Test B pre/postemergence velvetleaf; format: in vivo, Abutilon theophrasti
Outline: as §1

[15] = system: soybean; test: Test B pre/postemergence soybean; format: in vivo, Glycine max
Outline: as §1

[16] = Preemergence, Rate 31 g/ha, visual rating, scale 0 to 10 (0 no effect, 10 complete control)
[17] = Preemergence, Rate 62 g/ha, scale of 0 to 10 where 0 is no effect and 10 is complete control
[18] = Preemergence, Rate 250 g/ha, scale of 0 to 10 where 0 is no effect and 10 is complete control
[19] = Rate 31 g/ha, Postemergence, scale 0 to 10
[20] = Rate 62 g/ha, Postemergence, scale of 0 to 10 where 0 is no effect and 10 is complete control
[21] = Rate 125 g/ha, Postemergence, scale 0 to 10
[22] = Rate 125 g/ha, Preemergence, scale of 0 to 10 where 0 is no effect and 10 is complete control

## CC(=O)Cn1c(=O)on(C(=O)N(c2ccc(F)cc2)C(C)C)c1=O [Compound 217]
[1]; [16]
  Rape plant response rating: 0
[1]; [17]
  Rape plant response rating: 0
[1]; [18]
  Rape plant response rating: 4
[1]; [19]
  Rape plant response rating: 0
[1]; [20]
  Rape plant response rating: 0
[1]; [21]
  Rape plant response rating: 0
[1]; [22]
  Rape plant response rating: 0
[1]; Rate 250 g/ha, Postemergence
  Plant response rating (0 to 10; 0 is no effect, 10 is complete control), Rape: 0
[2]; [16]
  Giant foxtail plant response rating: 3
[2]; [17]
  Giant foxtail plant response rating: 6
[2]; [18]
  Giant foxtail plant response rating: 10
[2]; [19]
  Giant foxtail plant response rating: 0
[2]; [20]
  Giant foxtail plant response rating: 1
[2]; [21]
  Giant foxtail plant response rating: 2
[2]; [22]
  Giant foxtail plant response rating: 8
[2]; Rate 250 g/ha, Postemergence
  Plant response rating (0 to 10; 0 is no effect, 10 is complete control), Giant foxtail: 7
[3]; [16]
  Cocklebur plant response rating: 0
[3]; [17]
  Cocklebur plant response rating: 0
[3]; [18]
  Cocklebur plant response rating: 0
[3]; [19]
  Cocklebur plant response rating: 0
[3]; [20]
  Cocklebur plant response rating: 0
[3]; [21]
  Cocklebur plant response rating: 0
[3]; [22]
  Cocklebur plant response rating: 0
[3]; Rate 250 g/ha, Postemergence
  Plant response rating (0 to 10; 0 is no effect, 10 is complete control), Cocklebur: 0
[4]; [16]
  Crabgrass plant response rating: 0
[4]; [17]
  Crabgrass plant response rating: 3
[4]; [18]
  Crabgrass plant response rating: 8
[4]; [19]
  Crabgrass plant response rating: 0
[4]; [20]
  Crabgrass plant response rating: 0
[4]; [21]
  Crabgrass plant response rating: 2
[4]; [22]
  Crabgrass plant response rating: 4
[4]; Rate 250 g/ha, Postemergence
  Plant response rating (0 to 10; 0 is no effect, 10 is complete control), Crabgrass: 3
[5]; [16]
  B. signalgrass plant response rating: 0
[5]; [17]
  B. signalgrass plant response rating: 0
[5]; Preemergence, Rate 250 g/ha, scale 0 to 10, 0 is no effect, 10 is complete control
  B. signalgrass plant response rating: 0
[5]; [19]
  B. signalgrass plant response rating: 0
[5]; [20]
  B. signalgrass plant response rating: 0
[5]; Rate 125 g/ha, Postemergence, scale 0 (no effect) to 10 (complete control)
  B. signalgrass plant response rating: 7
[5]; [22]
  B. signalgrass plant response rating: 0
[5]; Rate 250 g/ha, Postemergence
  Plant response rating (0 to 10; 0 is no effect, 10 is complete control), B. signalgrass: 7
[6]; [16]
  Corn plant response rating: 0
[6]; [17]
  Corn plant response rating: 0
[6]; [18]
  Corn plant response rating: 0
[6]; [19]
  Corn plant response rating: 0
[6]; [20]
  Corn plant response rating: 0
[6]; [21]
  Corn plant response rating: 0
[6]; [22]
  Corn plant response rating: 0
[6]; Rate 250 g/ha, Postemergence
  Plant response rating (0 to 10; 0 is no effect, 10 is complete control), Corn: 0
[7]; [16]
  Wheat plant response rating: 0
[7]; [17]
  Wheat plant response rating: 0
[7]; [18]
  Wheat plant response rating: 8
[7]; [20]
  Wheat plant response rating: 0
[7]; [21]
  Wheat plant response rating: 2
[7]; [22]
  Wheat plant response rating: 3
[7]; Rate 250 g/ha, Postemergence
  Plant response rating (0 to 10; 0 is no effect, 10 is complete control), Wheat: 3
[8]; [16]
  Bedstraw plant response rating: 0
[8]; [17]
  Bedstraw plant response rating: 0
[8]; [18]
  Bedstraw plant response rating: 0
[8]; [19]
  Bedstraw plant response rating: 0
[8]; [20]
  Bedstraw plant response rating: 0
[8]; [21]
  Bedstraw plant response rating: 0
[8]; [22]
  Bedstraw plant response rating: 0
[8]; Rate 250 g/ha, Postemergence
  Plant response rating (0 to 10; 0 is no effect, 10 is complete control), Bedstraw: 0
[9]; [16]
  Redroot pigweed plant response rating: 0
[9]; [17]
  Redroot pigweed plant response rating: 0
[9]; [18]
  Redroot pigweed plant response rating: 10
[9]; [19]
  Redroot pigweed plant response rating: 0
[9]; [20]
  Redroot pigweed plant response rating: 0
[9]; [21]
  Redroot pigweed plant response rating: 0
[9]; [22]
  Redroot pigweed plant response rating: 5
[9]; Rate 250 g/ha, Postemergence
  Plant response rating (0 to 10; 0 is no effect, 10 is complete control), Redroot pigweed: 0
[10]; [16]
  Morningglory plant response rating: 0
[10]; [17]
  Morningglory plant response rating: 0
[10]; [18]
  Morningglory plant response rating: 0
[10]; [19]
  Morningglory plant response rating: 0
[10]; [20]
  Morningglory plant response rating: 0
[10]; [21]
  Morningglory plant response rating: 0
[10]; [22]
  Morningglory plant response rating: 0
[10]; Rate 250 g/ha, Postemergence
  Plant response rating (0 to 10; 0 is no effect, 10 is complete control), Morningglory: 0
[11]; [16]
  Nutsedge plant response rating: 0
[11]; [17]
  Nutsedge plant response rating: 0
[11]; [18]
  Nutsedge plant response rating: 0
[11]; [19]
  Nutsedge plant response rating: 0
[11]; [20]
  Nutsedge plant response rating: 0
[11]; [21]
  Nutsedge plant response rating: 0
[11]; [22]
  Nutsedge plant response rating: 0
[11]; Rate 250 g/ha, Postemergence
  Plant response rating (0 to 10; 0 is no effect, 10 is complete control), Nutsedge: 0
[12]; [16]
  Wild oats plant response rating: 0
[12]; [17]
  Wild oats plant response rating: 0
[12]; [18]
  Wild oats plant response rating: 2
[12]; [20]
  Wild oats plant response rating: 0
[12]; [21]
  Wild oats plant response rating: 0
[12]; [22]
  Wild oats plant response rating: 0
[12]; Rate 250 g/ha, Postemergence
  Plant response rating (0 to 10; 0 is no effect, 10 is complete control), Wild oats: 0
[13]; [16]
  Blackgrass plant response rating: 0
[13]; [17]
  Blackgrass plant response rating: 6
[13]; [18]
  Blackgrass plant response rating: 8
[13]; [19]
  Blackgrass plant response rating: 0
[13]; [20]
  Blackgrass plant response rating: 3
[13]; [21]
  Blackgrass plant response rating: 6
[13]; [22]
  Blackgrass plant response rating: 6
[13]; Rate 250 g/ha, Postemergence
  Plant response rating (0 to 10; 0 is no effect, 10 is complete control), Blackgrass: 6
[14]; [16]
  Velvetleaf plant response rating: 0
[14]; [17]
  Velvetleaf plant response rating: 0
[14]; [18]
  Velvetleaf plant response rating: 5
[14]; [20]
  Velvetleaf plant response rating: 0
[14]; [21]
  Velvetleaf plant response rating: 0
[14]; [22]
  Velvetleaf plant response rating: 1
[14]; Rate 250 g/ha, Postemergence
  Plant response rating (0 to 10; 0 is no effect, 10 is complete control), Velvetleaf: 0
[15]; [16]
  Soybean plant response rating: 0
[15]; [17]
  Soybean plant response rating: 0
[15]; [18]
  Soybean plant response rating: 0
[15]; [20]
  Soybean plant response rating: 1
[15]; [21]
  Soybean plant response rating: 1
[15]; [22]
  Soybean plant response rating: 0
[15]; Rate 250 g/ha, Postemergence
  Plant response rating (0 to 10; 0 is no effect, 10 is complete control), Soybean: 1
